Measurements reported in patent publication US10538520B2, “Benzamide and nicotinamide compounds and methods of using same” (OncoTartis Inc., priority 2013, dated 2020).

What was measured:
MV4-11 = test: Cytotoxicity towards MV4-11 cell line; assay type: cell-based; conditions: Homo sapiens
Protocol: (§1) In various embodiments, the compounds of the disclosure are those in which show IC50 values in cytotoxicity experiments towards cells lines MV4-11 and U937 of >20 μM, 10-20 μM, 5-10 μM, 1-5 μM, or <1 μM.
(§2) The IC50 is divided into 5 categories: A<1 μM, B 1-5 μM, C 5-10 μM, D 10-20 μM, and E>20 μM.

U-937 = test: Cytotoxicity towards U-937 cell line; assay type: cell-based; conditions: Homo sapiens
Protocol: as §1, §2

SMILES | IC50 (MV4-11) [µM] | IC50 (U-937) [µM]
Cc1cc(C)n(CCNC(=O)c2ccc(-n3cccn3)c(C#Cc3ccccc3)c2)n1 [TT-02927] | 10 to 20 | 5 to 10
Cn1nnnc1SCCNC(=O)c1ccc(-n2cccn2)c(C#Cc2ccccc2)c1 [TT-02928] | 10 to 20 | 5 to 10
O=C(NCCN1CCCC1=O)c1ccc(-n2cccn2)c(C#Cc2ccccc2)c1 [TT-02929] | > 20 | > 20
CC(CNC(=O)c1ccc(-n2cccn2)c(C#Cc2ccccc2)c1)n1cncn1 (stereo not drawn) [TT-02930] | > 20 | > 20
O=C(NCc1ccco1)c1ccc(-n2cccn2)c(C#Cc2cccnc2)c1 [TT-02931] | > 20 | 10 to 20
CCc1nnc(NC(=O)c2ccc(-n3cccn3)c(C#Cc3cccnc3)c2)s1 [TT-02932] | > 20 | > 20
CC(CNC(=O)c1ccc(-n2cccn2)c(C#Cc2cccnc2)c1)n1cncn1 (stereo not drawn) [TT-02933] | > 20 | > 20
O=C(NCCCc1ccccn1)c1ccc(-n2cccn2)c(C#Cc2ccccc2)c1 [TT-02935] | 10 to 20 | 5 to 10
O=C(NCCCN1CCOCC1)c1ccc(-n2cccn2)c(C#Cc2cccnc2)c1 [TT-02936] | > 20 | > 20
O=C(NCCCN1CCCC1=O)c1ccc(-n2cccn2)c(C#Cc2cccnc2)c1 [TT-02937] | > 20 | > 20
O=C(NCCN1C(=O)CSC1=O)c1ccc(-n2cccn2)c(C#Cc2cccnc2)c1 [TT-02938] | > 20 | > 20
Cn1nnnc1SCCNC(=O)c1ccc(-n2cccn2)c(C#Cc2cccnc2)c1 [TT-02939] | > 20 | 5 to 10
Cc1n[nH]c(SCCNC(=O)c2ccc(-n3cccn3)c(C#Cc3cccnc3)c2)n1 [TT-02940] | > 20 | 10 to 20
O=C(NCCCc1ccccn1)c1ccc(-n2cccn2)c(C#Cc2cccnc2)c1 [TT-02941] | 10 to 20 | 5 to 10
Cc1nn(-c2ccc(C(=O)NCCc3cnccn3)cc2C#Cc2ccccc2)c(C)c1C [TT-02942] | > 20 | 5 to 10
O=C(NCCc1cnccn1)c1ccc(-n2cccn2)c(C#Cc2ccccc2)c1 [TT-02943] | 10 to 20 | 1 to 5
O=C(NCc1cccnc1)c1ccc(-n2cccn2)c(C#Cc2cccnc2)c1 [TT-02944] | > 20 | 10 to 20
Cc1ccnn1CCNC(=O)c1ccc(-n2cccn2)c(C#Cc2cccnc2)c1 [TT-02945] | > 20 | > 20

SMILES | IC50 (MV4-11) [µM] | IC50 (U-937) [µM]
CC(C)(C)NC(=O)c1ccc(-n2cccn2)c(C#Cc2ccccn2)c1 [TT-02946] | > 20 | 5 to 10
O=C(NCc1ccco1)c1ccc(-n2cccn2)c(C#Cc2ccccn2)c1 [TT-02947] | > 20 | < 1
CCc1nnc(NC(=O)c2ccc(-n3cccn3)c(C#Cc3ccccn3)c2)s1 [TT-02948] | > 20 | > 20
Cc1nn(-c2ccc(C(=O)NCCc3c[nH]cn3)cc2C#Cc2ccccc2)c(C)c1C [TT-02949] | 10 to 20 | 5 to 10
O=C(NCCCn1ccnc1)c1ccc(-n2cccn2)cc1 [TT-03071] | 1 to 5 | 1 to 5
O=C(NCCCn1ccnc1)c1cccc(Br)c1 [TT-03073] | > 20 | > 20
Cc1ccc(C(=O)NCCCn2ccnc2)cc1C#Cc1ccccc1 [TT-03196] | < 1 | < 1
O=C(NCCCc1cn[nH]c1)c1ccc(-n2cccn2)c(C#Cc2cccc(F)c2)c1 [TT-03198] | < 1 | < 1
Cc1ccc(C#Cc2cc(C(=O)NCCCc3cn[nH]c3)ccc2-n2cccn2)cc1 [TT-03201] | < 1 | < 1
O=C(NCCCc1cn[nH]c1)c1ccc(-n2cccn2)c(C#Cc2ccccc2F)c1 [TT-03211] | < 1 | < 1
O=C(NCCCn1ccnc1)c1ccc(-n2cccn2)c(C#Cc2cccc(F)c2)c1 [TT-03217] | < 1 | < 1
O=C(NCCCn1ccnc1)c1ccc(-n2cccn2)c(C#Cc2ccc(Cl)cc2)c1 [TT-03221] | < 1 | < 1
CC1CN(c2ncc(C(=O)NCCCc3cn[nH]c3)cc2C#Cc2ccc(F)cc2)CCN1 (stereo not drawn) [TT-03756] | < 1 | –
CC1CC(C)CN(c2ncc(C(=O)NCCCc3cn[nH]c3)cc2C#Cc2ccc(F)cc2)C1 (stereo not drawn) [TT-03761] | < 1 | –
COC1CCCN(c2ncc(C(=O)NCCCc3cn[nH]c3)cc2C#Cc2ccc(F)cc2)C1 (stereo not drawn) [TT-03762] | < 1 | –
O=C(NCCCc1cn[nH]c1)c1cnc(N2CCOCC2)c(C#Cc2ccc(F)cc2)c1 [TT-03767] | < 1 | –
O=C1CN(c2ncc(C(=O)NCCCc3cn[nH]c3)cc2C#Cc2ccc(F)cc2)CCN1 [TT-03768] | < 1 | –
CC1CN(c2ncc(C(=O)NCCCc3cn[nH]c3)cc2C#Cc2ccc(F)cc2)CCN1C(=O)OC(C)(C)C (stereo not drawn) [TT-03772] | < 1 | –
